# Tests used:
# [1] = test system: IMR-90 SW26 cells; test: Cell death of IMR-90 SW26 cells on bleomycin sulfate treatment; type: cell-based, human; conditions: 25 μg/ml for two hours in serum free medium
# Protocol: SW 26 cells enter crisis at approximately PDL 82-85. Numerous vials of SW26 cells (8×10^6 cells/vial) were frozen at PDL 71, and testing verified that spontaneous immortalization events had not yet occurred. Five vials were thawed, scaled up for 4 days to approximately 10^8 cells (thus to approximately PDL 74), then trypsinized and combined into a single pool of cells in 40 ml of medium and distributed into 200 10 cm^2 dishes. Thirty dishes were treated with 25 μg/ml bleomycin sulfate (a chemical mutagen) for two hours in serum free medium one day later.
# [2] = test system: SW26 cells; test: Frequency of escape from crisis (immortalization) of SW26 cells, fluctuation analysis; type: cell-based, human; conditions: bleomycin sulfate 25 μg/ml for two hours; LNL6 infection with 2 μg/ml polybrene
# Text: The frequency of escape from crisis (e.g., the immortalization frequency of T-antigen expressing cells) was estimated using an approach based on what is essentially a fluctuation analysis as previously described (Shay, J. W., and Wright, W. E. (1989) Exp. Cell Res. 184, 109-118). SW26 cells (a clone isolated from IMR 90 normal human lung fibroblasts transfected with a vector expressing SV40 large T antigen) were expanded approximately 15 PDL's before crisis into multiple series at a constant cell density of 6667 cells/cm^2. Each series was subsequently maintained as a separate culture, so that at the end of the experiment the fraction of each series that gave rise to immortal cell lines could be determined. Cultures were split at or just prior to confluence at 6667 cells/cm^2. […]
# The remainder of the dishes were used as controls (70 dishes) or infected with LNL6 defective retrovirus (100 dishes). […] Within a few days after infection, all control and experimental dishes were counted and each dish contained 1-2×10^6 cells. The PDL of each dish was calculated and cells were then replated at 0.33×10^6 in 50 cm^2 dishes and maintained separately to conduct the fluctuation analysis.
# Immortalization is expressed as the number of immortal lines per number of culture series, each series being derived from a single dish at the initiation of the experiment. […]
# [3] = test system: MDA 157 human breast cancer cells; test: Proliferation of MDA 157 cancer cells fed oligonucleotides (Example 2); type: cell-based; conditions: 1.0 μM CTO-12
# Protocol: Specifically, MDA 157 human breast cancer cells with an immortal phenotype were seeded at 10,000 cells per well in 12 well tissue culture dishes and fed medium only or medium supplemented with GTO-12 (at 1.0 μM, 0.1 μM, and 0.01 μM). […] Cells fed the GTO-12 oligonucleotide, at 1.0 μM, however, ceased to proliferate after less than 10 doubling. […] The lack of effect of the G+C mixture may reflect the CTO-12 oligonucleotide, competing with or base pairing with the GTO-12 oligonucleotide, this preventing its inhibitory effect on the cancer cell telomerase.
# [4] = test system: IMR-90 lung fibroblasts; test: Life span of IMR-90 lung fibroblasts treated with phosphodiester CTO (Example 11); type: cell-based, human
# Protocol: Referring to FIG. 14, IMR-90 lung fibroblasts TRFat PDL 30 were treated with 10 μM, 30 μM or 100 μM phosphodiester CTO or with only media addition (control). The cells were cultured in medium containing regular defined supplemented calf serum. The cells were passaged in 24 well dishes and subcultivated by trypsinization upon reaching confluency at 25,000 cells per well. The cells were fed medium containing oligonucleotides at various concentrations daily. As a control, cells were fed identical medium without oligonucleotides. As is illustrated in FIG. 14, there was approximately a 12-15% extension of total life span with CTO. In these experiments the control cells divided approximately 15-18 times during the experiment, whereas the treated cells divided 23-26 times. IMR-90 telomeres shorten approximately 50 b.p. per division and the TRF length of the control IMR-90 fibroblasts at senescence was approximately 9 kb. Since the 100 μM CTO-treated IMR-90 cells senesced at PDL 55, the predicted difference in the rate of TRF loss between the control and the 100 μM CTO (9 kb vs 9.4 kb) is too small to be resolved using current techniques.
# [5] = test system: HME31E6 cells; test: TRF shortening in HME31E6 cells cultured with CTO (Example 10); type: cell-based, human; conditions: 3, 10, 30 and 100 μM, between PDL 36 and 50
# Text: As in Example 1, the change in proliferative lifespan and rate of telomere shortening in cultured mammary epithelial cells treated with the indicated amounts of CTO (occasionally referred to as C-Rich Terminal Repeat (CTR)) versus control random oligonucleotides. Normal human mammary epithelial cells from a donor (31) were infected with the E6 gene of human papilloma virus 16. This gene product binds p53 protein and permits HME31 cells to have extended life span by proliferating from PDL 42 to PDL 62 when crisis occurs. During this extended lifespan period the TRFs shorten from an average of approximately 5 kb to 2.5 kb (compare in FIG. 12 HME31 PD 40 to HME31E6 PD 68).
# As controls the cells were cultured without oligonucleotides (nil) or with 30 μM random oligonucleotide. […] This is most easily seen by examining the subpopulation of telomere TRFs that migrate more slowly than the rest, giving a discrete trailing band. Cells were maintained in logarithmic growth with medium changed and fresh oligonucleotide added three times per week.
# [6] = test system: IMR-90 human lung fibroblasts; test: Proliferative lifespan of IMR-90 fibroblasts fed oligonucleotides (Example 1); type: cell-based
# Text: The efficacy of the CTO-12 oligonucleotide (5′-[…]-3′ Seq. ID No. 2) to reduce telomere shortening associated with cellular senescence (FIG. 1) was studied using target cells cultured under standard cell culture conditions in minimal essential medium supplemented with 10% fetal calf serum. The cells were subcultivated every four days by trypsinization upon reaching confluency and were fed new medium at subcultivation or every two days, whichever came first. Cells at various population doubling levels were seeded at 10,000 cells per well and fed medium containing oligonucleotides at various concentrations. oligonucleotides studied were the cytidine-rich terminal oligonucleotide (CTO-12), guanidine-rich terminal oligonucleotide-12 bp (GTO-12, having the sequence 5′-[…]-3′ (SEQ ID NO:19), and a 12 base pair randomer with a random nucleotide in every position. As an additional control, cells were fed identical medium without oligonucleotide. Cells were fed oligonucleotide every 48 hours from 10×stocks. (Such oligonucleotides may be modified to enhance stability, e.g., with phosphorothioates, dithioate and 2-O-methyl RNA.) In the case of phosphorothioates it would be desirable to use longer CTO primers such as 5′-[…]-3′(SEQ ID NO:20), 5′-[…]-3′(SEQ ID NO:21), or 5′-[…]-3′(SEQ ID NO:22). […]
# [7] = test system: HME31E6 cells; test: Replicative lifespan of HME31E6 cells cultured with CTR (Example 10); type: cell-based, human; conditions: 30 μM and 100 μM
# Protocol: Human mammary epithelial cells expressing HPV16 E6 bypass M1 and have extended replicative lifespan. HME31 Cells normally senesce at PDL 42-45. When expressing […] they will bypass M1 and divide until they reach crisis (M2) at PDL 53-62. The TRFs in HME31 (E6) cells at PDL 40 are approximately 5-6 Kb while at PDL 62 they are 3-4 Kb (see FIG. 12). […] As controls, the cells were cultured without oligonucleotide (control), or with a 30 μM random oligonucleotide with the base content matched to the CTR oligonucleotide. […] The control cells divided approximately 20 times during the experiment, whereas the CTR-treated cells divided at least 40-50 times.
Substance,cells dying [1],Frequency (probability of obtaining an immortal cell line based on the number of cells plated at each passage) [2],Immortalization (number of immortal lines per number of culture series) [2],proliferation phenotype [3],"number of cell divisions during the experiment ([4]; 10 μM, 30 μM or 100 μM, from PDL 30)","extension of total life span ([4]; 10 μM, 30 μM or 100 μM, from PDL 30, fed daily)",PDL at senescence ([4]; 100 μM) [PDL],TRF shortening compared to nil control and 30 μM random oligonucleotide [5],"doublings of continued proliferation more than control cells ([6]; 1.0 μM oligonucleotide, cells seeded at PD45)","population doubling at which replicative senescence was reached ([6]; CTO-12 at less than 1.0 μM (0.1 μM), seeded at PD45)",replicative lifespan compared to control and 30 μM random oligonucleotide ([7]; started at PDL 36),"number of cell divisions during the experiment ([7]; started at PDL 36, defined medium without serum)"
bleomycin sulfate,approximately 50%,7.7 × 10^−7,7/27,,,,,,,,,
5′-CCCTAACCCTAA-3′ [CTO-12],,,,continued to express the immortal phenotype,23-26 times,12-15%,55,dose related retardation of TRF shortening,approximately 10 doubling,about 52 population doubling,dose-related extension of the replicative lifespan,40-50 times
